According to US9695225B2, “Peptide compound for treatment of severe hypoglycemia” (Eli Lilly and Company, priority 2013, dated 2017):
Read-outs that look alike come from different tables or passages of the source. Non-standard residues stand in square brackets, D forms with d. Residues, ends and D or L forms follow the SMILES beside them. Aib = CC(C)(N)C(=O)O

Tests used:
[1] = type: physicochemical
Method: (§1) The compound of SEQ ID NO: 2 is dissolved in H2O to a 10 mg/mL concentration (peptide content), filtered through a 0.22 μm filter (Millex, SLGV004SL), and then diluted to 1 mg/mL in Buffer P5 (10 mM Histidine, 150 mM NaCl in H2O, pH 5.0) or Buffer P6 (10 mM Histidine, 150 mM NaCl in H2O, pH 6.0). Each solution is transferred to three vials and autoclaved. Samples are then maintained at 4° C., 30° C. and 40° C. Samples are visually assessed at different time points for turbidity and phase separation. Stability of the compound is assessed by analytical reverse phase HPLC (RP-HPLC) on a Phenomenex Aeris Widepore, 3.6 μm, XB-C18 4.6×100 mm column (P/NO 00D-4482-E0) heated at 60° C. with a AB (A=0.05% TFA/H2O; B=0.04% TFA/acetonitrile) gradient of 5% B isocratic over 5 min, 5 to 25% B over 20 minutes, 25 to 30% B over 30 min, and 30 to 45% B over 10 min with a flow rate of 1.2 mL/min (wavelength of 220 ηm).

[2] = Chemical stability by RP-HPLC (% main peak); type: physicochemical; settings: for 4° C. % Main Peak / 30° C. % Main Peak / 40° C. % Main Peak: 4 weeks; for % Main Peak Day 0: RP-HPLC
Method: as §1
The compound of SEQ ID NO: 2 also maintains chemical stability at pH 5 (Buffer P5) and pH 6 (Buffer P6) when maintained at 4° C., 30° C. and 40° C. for 4 weeks.

[3] = Physical stability test using Thioflavin T binding assay (fibrillation); type: physicochemical; settings: 25° C.; for Thioflavin T fluorescence t = 0 h / Thioflavin T fluorescence t = 40 h / Thioflavin T fluorescence t = 120 h: 1 mg/mL, 300 rpm
Method: Fibrillation is a common problem when glucagon is formulated in aqueous solution. To assess the level of fibrillation of the compound of the present invention, a Thioflavin T binding assay is performed.
All samples are mechanically stressed at 25° C. in a magnetic stir plate set at 300 rpm. […] Raw data is collected with Softmax Pro 5.4.1 (Molecular Devices) and imported to Excel.

C57/Bl6 male mice = assay: Effects on blood glucose levels in C57/Bl6 male mice; type: in vivo; settings: for Blood glucose levels: mean±SEM of 4 mice
Method: To determine the effects of the compound of SEQ ID NO: 2 on blood glucose levels, the compound is administered to C57/Bl6 mice. Three month old male C57BL6 mice (Harlan Laboratories) are used Animals are individually housed in a temperature-controlled (24° C.) facility with a 12 hour light/dark cycle, and have free access to food and water. After 1 week acclimation to the facility, mice are randomized to treatment groups (n=4/group). Test compound is formulated in Buffer 2 (see Physical stability test using Thioflavin T binding assay). On the morning of test, food is removed at 08:00 AM. Two hours after food is removed, the test compound is given subcutaneously at 0, 1, 3 or 10 μg/kg doses. Blood glucose is measured at time 0, 15, 30, 60 and 120 minutes after test compound administration with an ACCU-CHECK® (Roche Diagnostics) glucometer. […] Results are expressed as mean±standard error mean (SEM) of 4 mice per group.
Blood glucose levels at 10 μg/kg of compound of SEQ ID NO: 2 is taken as the maximum value.

[4] = Buffer 1 (20 mM Histidine, pH 6.0)
[5] = Buffer 2 (10 mM Histidine, 150 nM NaCl, pH 6.0)
[6] = Buffer 3 (10 mM Histidine, 300 mM sorbitol, pH 6.0)
[7] = Buffer 4 (10 mM Histidine, 0.02% Tween 80, pH 6.0)
[8] = Buffer 5 (10 mM Histidine, 300 mM Arginine, pH 6.0)
[9] = Buffer 6 (10 mM Histidine, 300 mM sucrose, pH 6.0)

SMILES: CC(C)C[C@H](NC(=O)[C@H](Cc1c[nH]c2ccccc12)NC(=O)[C@H](CCC(=O)O)NC(=O)[C@@H](NC(=O)[C@H](Cc1ccccc1)NC(=O)[C@H](CCC(=O)O)NC(=O)[C@H](CCC(N)=O)NC(=O)[C@H](C)NC(=O)[C@H](CCCCN)NC(=O)[C@H](CCCCN)NC(=O)C(C)(C)NC(=O)[C@H](CC(=O)O)NC(=O)[C@H](CC(C)C)NC(=O)[C@H](Cc1ccc(O)cc1)NC(=O)[C@H](CCCCN)NC(=O)[C@H](CO)NC(=O)[C@H](Cc1ccc(O)cc1)NC(=O)[C@H](CC(=O)O)NC(=O)[C@H](CO)NC(=O)[C@H](CC(C)C)NC(=O)[C@H](Cc1ccccc1)NC(=O)[C@@H](NC(=O)CNC(=O)[C@H](CCC(N)=O)NC(=O)[C@H](C)NC(=O)[C@@H](N)Cc1c[nH]cn1)[C@@H](C)O)C(C)C)C(=O)N[C@@H](CC(C)C)C(=O)N[C@@H](CCCCN)C(=O)N[C@H](C(=O)NCC(=O)N1CCC[C@H]1C(=O)N[C@@H](CO)C(=O)N[C@@H](CO)C(=O)NCC(=O)N[C@@H](C)C(=O)N1CCC[C@H]1C(=O)N1CCC[C@H]1C(=O)N[C@@H](CCCCN)C(=O)N[C@@H](CO)C(=O)N[C@@H](CCCCN)C(N)=O)[C@@H](C)O [SEQ ID NO: 2] (H-HAQGTFLSDYSKYLD[Aib]KKAQEFVEWLLKTGPSSGAPPKSK-NH2)
- solubility by visual assessment and RP-HPLC [1]: maintains good solubility
- Physical appearance ([1]; 1 mg/mL, Buffer P5 and P6, over 4 weeks): clear to colorless, with no opalescences and no particles
- 30° C. vs 4° C. Recovery 4 wk ([1]; Buffer P5 (pH 5.0)): 100%
- 40° C. vs 4° C. Recovery 4 wk ([1]; Buffer P5 (pH 5.0)): 100%
- 30° C. vs 4° C. Recovery 4 wk ([1]; Buffer P6 (pH 6.0)): 100%
- 40° C. vs 4° C. Recovery 4 wk ([1]; Buffer P6 (pH 6.0)): 101%
- 4° C. Total Peak Area 4 wk ([1]; pH 5): 4933
- 30° C. Total Peak Area 4 wk ([1]; pH 5): 4932
- 40° C. Total Peak Area 4 wk ([1]; pH 5): 4932
- 4° C. Total Peak Area 4 wk ([1]; pH 6): 4918
- 30° C. Total Peak Area 4 wk ([1]; pH 6): 4911
- 40° C. Total Peak Area 4 wk ([1]; pH 6): 4960
- 4° C. % Main Peak ([2]; Buffer P5 (pH 5.0)): 98.01%
- 30° C. % Main Peak ([2]; Buffer P5 (pH 5.0)): 97.07%
- 40° C. % Main Peak ([2]; Buffer P5 (pH 5.0)): 92.64%
- % Main Peak Day 0 ([2]; Buffer P5 (pH 5.0)): 99.55%
- 4° C. % Main Peak ([2]; Buffer P6 (pH 6.0)): 98.60%
- 30° C. % Main Peak ([2]; Buffer P6 (pH 6.0)): 97.71%
- 40° C. % Main Peak ([2]; Buffer P6 (pH 6.0)): 95.00%
- % Main Peak Day 0 ([2]; Buffer P6 (pH 6.0)): 99.02%
- main peak changes ([2]; pH 5 (Buffer P5), after 4 weeks at 30° vs. 4° C.): less than 1%
- main peak changes ([2]; pH 5 (Buffer P5), after 4 weeks at 40° C. vs. 4° C.): less than 6%
- main peak changes ([2]; pH 6 (Buffer P6), after 4 weeks at 30° vs. 4° C.): less than 1%
- main peak changes ([2]; pH 6 (Buffer P6), after 4 weeks at 40° C. vs. 4° C.): less than 4%
- fibrillation as measured by the Thioflavin T binding assay ([3]; pH 6, mechanical stress): did not demonstrate fibrillation
- Thioflavin T fluorescence t = 0 h [3, 4]: 74.6 fluorescence units
- Thioflavin T fluorescence t = 40 h [3, 4]: 76.9 fluorescence units
- Thioflavin T fluorescence t = 120 h [3, 4]: 89.2 fluorescence units
- Thioflavin T fluorescence t = 0 h [3, 5]: 130.1 fluorescence units
- Thioflavin T fluorescence t = 120 h [3, 5]: 137.0 fluorescence units
- Thioflavin T fluorescence t = 40 h ([3]; Buffer 2 (10 mM Histidine, NaCl, pH 6.0)): 137.3 fluorescence units
- Thioflavin T fluorescence t = 0 h [3, 6]: 68.1 fluorescence units
- Thioflavin T fluorescence t = 40 h [3, 6]: 71.4 fluorescence units
- Thioflavin T fluorescence t = 120 h [3, 6]: 72.4 fluorescence units
- Thioflavin T fluorescence t = 0 h [3, 7]: 51.9 fluorescence units
- Thioflavin T fluorescence t = 40 h [3, 7]: 56.2 fluorescence units
- Thioflavin T fluorescence t = 120 h [3, 7]: 57.4 fluorescence units
- Thioflavin T fluorescence t = 0 h [3, 8]: 113.9 fluorescence units
- Thioflavin T fluorescence t = 40 h [3, 8]: 120.0 fluorescence units
- Thioflavin T fluorescence t = 120 h [3, 8]: 123.2 fluorescence units
- Thioflavin T fluorescence t = 0 h [3, 9]: 78.0 fluorescence units
- Thioflavin T fluorescence t = 40 h [3, 9]: 74.1 fluorescence units
- Thioflavin T fluorescence t = 120 h [3, 9]: 88.9 fluorescence units
- Blood glucose levels (C57/Bl6 male mice; 1 μg/kg subcutaneously, 0 minutes): 165.3 ± 16.7 mg/dL
- Blood glucose levels (C57/Bl6 male mice; 1 μg/kg subcutaneously, 15 minutes): 212.0 ± 12.6 mg/dL
- Blood glucose levels (C57/Bl6 male mice; 1 μg/kg subcutaneously, 30 minutes): 203.1 ± 13.1 mg/dL
- Blood glucose levels (C57/Bl6 male mice; 1 μg/kg subcutaneously, 60 minutes): 169.9 ± 10.1 mg/dL
- Blood glucose levels (C57/Bl6 male mice; 1 μg/kg subcutaneously, 120 minutes): 141.0 ± 4.2 mg/dL
- Blood glucose levels (C57/Bl6 male mice; 3 μg/kg subcutaneously, 0 minutes): 148.0 ± 4.6 mg/dL
- Blood glucose levels (C57/Bl6 male mice; 3 μg/kg subcutaneously, 15 minutes): 234.1 ± 9.8 mg/dL
- Blood glucose levels (C57/Bl6 male mice; 3 μg/kg subcutaneously, 30 minutes): 242.1 ± 8.3 mg/dL
- Blood glucose levels (C57/Bl6 male mice; 3 μg/kg subcutaneously, 60 minutes): 169.4 ± 7.3 mg/dL
- Blood glucose levels (C57/Bl6 male mice; 3 μg/kg subcutaneously, 120 minutes): 148.2 ± 10.9 mg/dL
- Blood glucose levels (C57/Bl6 male mice; 10 μg/kg subcutaneously, 0 minutes): 155.4 ± 10.1 mg/dL
- Blood glucose levels (C57/Bl6 male mice; 10 μg/kg subcutaneously, 15 minutes): 270.0 ± 12.7 mg/dL
- Blood glucose levels (C57/Bl6 male mice; 10 μg/kg subcutaneously, 30 minutes): 308.5 ± 2.6 mg/dL
- Blood glucose levels (C57/Bl6 male mice; 10 μg/kg subcutaneously, 60 minutes): 212.4 ± 8.3 mg/dL
- Blood glucose levels (C57/Bl6 male mice; 10 μg/kg subcutaneously, 120 minutes): 152.4 ± 1.5 mg/dL
- ED50 (C57/Bl6 male mice; calculated on the 30 minute glucose measurements, 10 μg/kg taken as maximum, subcutaneous): 3.28 µg/kg
- effect on blood glucose (C57/Bl6 male mice; subcutaneous, C57/Bl6 mice): able to increase blood glucose
